According to patent US8269026B2, “Lupane derivatives useful for treating HIV” (priority 2008, dated 2012):
Counter-ions that a name gives are not always drawn. Like-named read-outs stand apart in the source and are kept apart here.

Tested on: HIV-1 (HIVIIIB) replication in MT2 cell line
Assay: HIV-1 replication in MT2 cell line with and without 30% human serum (viral RT activity in supernatant)
Format: cell-based
Details: average IC50 if tested more than once
Protocol: HIV-1 Replication in MT2 cell line with and without 30% human serum: The cells are infected at a Multiciplicity of Infection (MOI) of 0.5 for 3 h and then washed twice with complete media to remove residual virus. Cells are then resuspended at 0.5×10^6/ml in complete medium (RPMI, 10% FBS, 1% sodium pyruvate), and seeded into 96-well plates (6.25×10^4/well). The cells are cultured in the presence or absence of various concentrations of test compounds in serial dilutions for 3 days at 37° C. The test compounds are serially diluted in complete medium supplemented or not with 30% human serum. After 3 days, 100 μL of cultured medium with cells are replaced with 120 μL of freshly diluted test compounds in complete medium containing or not 30% Human serum. The level of HIV-1 replication is determined at days 5 after infection by the presence of viral RT activity in harvested supernatant fluid. The IC50 and IC90 values for the virus replication are determined by using GRAPHPAD PRISM software.
The IC50 of the compounds tested in accordance with the HIV replication activity assay MT2 (HIVIIIB) are represented in Table 1.

[1] = Human immunodeficiency virus 1, MT2 cells, with 30% human serum, read-out: MT2 (HIVIIIB) with HS 30% IC50 range
[2] = Human immunodeficiency virus 1, MT2 cells, without human serum, read-out: MT2 (HIVIIIB) IC50 range

| SMILES | IC50 [1] [µM] | IC50 [2] [µM] | IC50 (MT2 cells, with 30% human serum, read-out: MT2 (HIVIIIB) with HS 30% IC50 range) [µM] |
| --- | --- | --- | --- |
| CC(C)C1=C2[C@H]3CC[C@@H]4[C@@]5(C)CC[C@H](OC(=O)CC(C)(C)C(=O)O)C(C)(C)[C@@H]5CC[C@@]4(C)[C@]3(C)CC[C@@]2(NC(=O)c2nccs2)CC1=O [19-21, 3β-O-(3′,3′-Dimethylsuccinyl)-17β-(1,3-thiazole-2-amido)-21-oxolup-18-ene] | < 0.199 |  |  |
| CC(C)C1=C2[C@H]3CC[C@@H]4[C@@]5(C)CC[C@H](OC(=O)CC(C)(C)C(=O)O)C(C)(C)[C@@H]5CC[C@@]4(C)[C@]3(C)CC[C@@]2(NC(=O)Nc2cncnc2)CC1=O [17-44, 3β-O-(3′,3′-Dimethylsuccinyl)-17β-(N′-pyrimidin-5-yl-ureido)-21-oxolup-18-ene] | < 0.199 |  |  |
| CC(C)C1=C2C3CCC4[C@@]5(C)CC[C@H](OC(=O)CC(C)(C)C(=O)O)C(C)(C)C5CC[C@@]4(C)[C@]3(C)CC[C@@]2(NC(=O)C(C)N(C)C)CC1=O (mixture of isomers) [19-59, 3β-O-(3′,3′-Dimethylsuccinyl)-17β-((RS)-2-dimethylamino-propionamido)-21-oxolup-18-ene] | < 0.199 |  |  |
| CC(C)C1=C2C3CCC4[C@@]5(C)CC[C@H](OC(=O)CC(C)(C)C(=O)O)C(C)(C)C5CC[C@@]4(C)[C@]3(C)CC[C@@]2(NC(=O)N(C)C(C)C)CC1=O (stereo partly drawn) [17-18, 3β-O-(3′,3′-Dimethylsuccinyl)-17β-[N′-isopropyl-N′-methyl-ureido]-21-oxolup-18-ene] | < 0.199 |  |  |
| Cc1nnc(C(=O)N[C@@]23CC[C@]4(C)[C@H](CC[C@@H]5[C@@]6(C)CC[C@H](OC(=O)CC(C)(C)C(=O)O)C(C)(C)[C@@H]6CC[C@]54C)C2=C(C(C)C)C(=O)C3)o1 [19-4, 3β-O-(3′,3′-Dimethylsuccinyl)-17β-(5-methyl-[1,3,4]oxadiazole-2-amido)-21-oxolup-18-ene] | < 0.199 | < 0.199 |  |
| CC(C)C1=C2C3CCC4[C@@]5(C)CC[C@H](OC(=O)CC(C)(C)C(=O)O)C(C)(C)C5CC[C@@]4(C)[C@]3(C)CC[C@@]2(NC(=O)[C@@H]2CCCN2C(C)C)CC1=O (some centres unmarked) [19-56] | < 0.199 |  |  |
| CC(C)C1=C2C3CCC4[C@@]5(C)CC[C@H](OC(=O)CC(C)(C)C(=O)O)C(C)(C)C5CC[C@@]4(C)[C@]3(C)CC[C@@]2(NC(=O)N2CC[C@H](N)C2)CC1=O (stereo partly drawn) [17-43, 3β-O-(3′,3′-Dimethylsuccinyl)-17β-[((S)-3-amino-pyrrolidine-1-carbonyl)-amino]-21-oxolup-18-ene] | < 0.199 |  |  |
| CC(C)C1=C2C3CCC4[C@@]5(C)CC[C@H](OC(=O)CC(C)(C)C(=O)O)C(C)(C)C5CC[C@@]4(C)[C@]3(C)CC[C@@]2(NC(=O)N2CCC(NC(=O)OC(C)(C)C)CC2)CC1=O (stereo partly drawn) [17-20, 3β-O-(3′,3′-Dimethylsuccinyl)-17β-[(4-tert-butoxycarbonylamino-piperidine-1-carbonyl)-amino]-21-oxolup-18-ene] | < 0.199 |  |  |
| CC(C)C1=C2C3CCC4[C@@]5(C)CC[C@H](OC(=O)CC(C)(C)C(=O)O)C(C)(C)C5CC[C@@]4(C)[C@]3(C)CC[C@@]2(NC(=O)NCC2CCCCC2)CC1=O (stereo partly drawn) [17-8, 3β-O-(3′,3′-Dimethylsuccinyl)-17β-[N′-(cyclohexylmethyl)ureido]-21-oxolup-18-ene] | < 0.199 |  |  |
| CC(C)C1=C2C3CCC4[C@@]5(C)CC[C@H](OC(=O)CC(C)(C)C(=O)O)C(C)(C)C5CC[C@@]4(C)[C@]3(C)CC[C@@]2(NC(=O)NC(C)(C)C)CC1=O (stereo partly drawn) [17-5, 3β-O-(3′,3′-Dimethylsuccinyl)-17β-[N′-(tert-butyl)ureido]-21-oxolup-18-ene] | < 0.199 | < 0.199 |  |
| CC(C)C1=C2C3CCC4[C@@]5(C)CC[C@H](OC(=O)CC(C)(C)C(=O)O)C(C)(C)C5CC[C@@]4(C)[C@]3(C)CC[C@@]2(NC(=O)[C@H]2CCCN2C(=O)OC(C)(C)C)CC1=O (some centres unmarked) [19-58] | < 0.199 |  |  |
| CC(C)C1=C2[C@H]3CC[C@@H]4[C@@]5(C)CC[C@H](OC(=O)CC(C)(C)C(=O)O)C(C)(C)[C@@H]5CC[C@@]4(C)[C@]3(C)CC[C@@]2(NC(=O)c2ccnn2C)CC1=O [19-34, 3β-O-(3′,3′-Dimethylsuccinyl)-17β-(1-methyl-1H-pyrazole-5-amido)-21-oxolup-18-ene] | < 0.199 | < 0.199 |  |
| CC(C)C1=C2C3CCC4[C@@]5(C)CC[C@H](OC(=O)CC(C)(C)C(=O)O)C(C)(C)C5CC[C@@]4(C)[C@]3(C)CC[C@@]2(NC(=O)NC(C)(C)c2ccccc2)CC1=O (stereo partly drawn) [17-63, 3β-O-(3′,3′-Dimethylsuccinyl)-17β-[N′-(1-methyl-1-phenyl-ethyl)-ureido]-21-oxolup-18-ene] | < 0.199 |  |  |
| CC(C)C1=C2[C@H]3CC[C@@H]4[C@@]5(C)CC[C@H](OC(=O)CC(C)(C)C(=O)O)C(C)(C)[C@@H]5CC[C@@]4(C)[C@]3(C)CC[C@@]2(NC(=O)c2ccccn2)CC1=O [19-15, 3β-O-(3′,3′-Dimethylsuccinyl)-17β-(Pyridin-2-yl)amido-21-oxolup-18-ene hydrochloride] | < 0.199 |  |  |
| Cc1noc(C(=O)N[C@@]23CC[C@]4(C)C(CCC5[C@@]6(C)CC[C@H](OC(=O)CC(C)(C)C(=O)O)C(C)(C)C6CC[C@]54C)C2=C(C(C)C)C(=O)C3)n1 (stereo partly drawn) [19-67, 3β-O-(3′,3′-Dimethylsuccinyl)-17β-(3-methyl-[1,2,4]oxadiazole-5-amido)-21-oxolup-18-ene] | < 0.199 |  |  |
| CC(C)C1=C2C3CCC4[C@@]5(C)CC[C@H](OC(=O)CC(C)(C)C(=O)O)C(C)(C)C5CC[C@@]4(C)[C@]3(C)CC[C@@]2(NC(=O)OC2CCN(C(=O)OC(C)(C)C)CC2)CC1=O (stereo partly drawn) [20-6, 3β-O-(3′,3′-Dimethylsuccinyl)-17β-[(1-carboxylic acid tert-butyl ester)-piperidine-4-oxycarbonylamino]-21-oxolup-18-ene] | < 0.199 | < 0.199 |  |
| CC(C)C1=C2C3CCC4[C@@]5(C)CC[C@H](OC(=O)CC(C)(C)C(=O)O)C(C)(C)C5CC[C@@]4(C)[C@]3(C)CC[C@@]2(NC(=O)OCC2CCCN(C)C2)CC1=O (stereo partly drawn) [20-19, 3β-O-(3′,3′-Dimethylsuccinyl)-17β-(1-methylpiperidine-3-methoxycarbonylamino)-21-oxolup-18-ene] | < 0.199 |  |  |
| CC(C)C1=C2[C@H]3CC[C@@H]4[C@@]5(C)CC[C@H](OC(=O)CC(C)(C)C(=O)O)C(C)(C)[C@@H]5CC[C@@]4(C)[C@]3(C)CC[C@@]2(NC(=O)CCCN2CCCC2)CC1=O [19-39, 3β-O-(3′,3′-Dimethylsuccinyl)-17β-(4-pyrrolidin-1-yl-butyramido)-21-oxolup-18-ene] | < 0.199 |  |  |
| CC(C)C1=C2C3CCC4[C@@]5(C)CC[C@H](OC(=O)CC(C)(C)C(=O)O)C(C)(C)C5CC[C@@]4(C)[C@]3(C)CC[C@@]2(NC(=O)N2CCC(F)(F)CC2)CC1=O (stereo partly drawn) [17-59, 3β-O-(3′,3′-Dimethylsuccinyl)-17β-[(4,4-difluoro-piperidine-1-carbonyl)-amino]-21-oxolup-18-ene] | < 0.199 |  |  |
| CC(C)C1=C2[C@H]3CC[C@@H]4[C@@]5(C)CC[C@H](OC(=O)CC(C)(C)C(=O)O)C(C)(C)[C@@H]5CC[C@@]4(C)[C@]3(C)CC[C@@]2(NC(=O)C2CCNCC2)CC1=O [19-6, 3β-O-(3′,3′-Dimethylsuccinyl)-17β-(piperidine-4-amido)-21-oxolup-18-ene] | > 1 | < 0.199 |  |
| CC(C)C1=C2C3CCC4[C@@]5(C)CC[C@H](OC(=O)CC(C)(C)C(=O)O)C(C)(C)C5CC[C@@]4(C)[C@]3(C)CC[C@@]2(NC(=O)C2CC3CCC(C2)O3)CC1=O (stereo partly drawn) [19-71, 3β-O-(3′,3′-Dimethylsuccinyl)-17β-(8α-oxa-bicyclo[3.2.1]octane-3-amido)-21-oxolup-18-ene] |  |  | < 0.199 |
| CC(C)C1=C2C3CCC4[C@@]5(C)CC[C@H](OC(=O)CC(C)(C)C(=O)O)C(C)(C)C5CC[C@@]4(C)[C@]3(C)CC[C@@]2(NC(=O)N2CCC(N(C)C(=O)OC(C)(C)C)CC2)CC1=O (stereo partly drawn) [17-36, 3β-O-(3′,3′-Dimethylsuccinyl)-17β-[(4-(tert-butyloxycarbonyl-methyl-amino)-piperidine-1-carbonyl)-amino]-21-oxolup-18-ene] | < 0.199 |  |  |
| CC(C)C1=C2C3CCC4[C@@]5(C)CC[C@H](OC(=O)CC(C)(C)C(=O)O)C(C)(C)C5CC[C@@]4(C)[C@]3(C)CC[C@@]2(NC(=O)c2ccsc2)CC1=O (stereo partly drawn) [19-78, 3β-O-(3′,3′-Dimethylsuccinyl)-17β-(thiophene-3-amido)-21-oxolup-18-ene] | < 0.199 |  |  |
| CC(C)C1=C2C3CCC4[C@@]5(C)CC[C@H](OC(=O)CC(C)(C)C(=O)O)C(C)(C)C5CC[C@@]4(C)[C@]3(C)CC[C@@]2(NC(=O)N2CC[C@@H](N)C2)CC1=O (stereo partly drawn) [17-42, 3β-O-(3′,3′-Dimethylsuccinyl)-17β-[((R)-3-amino-pyrrolidine-1-carbonyl)-amino]-21-oxolup-18-ene] | 0.2 to 0.999 |  |  |
| CC(C)C1=C2C3CCC4[C@@]5(C)CC[C@H](OC(=O)CC(C)(C)C(=O)O)C(C)(C)C5CC[C@@]4(C)[C@]3(C)CC[C@@]2(NC(=O)C2CCOCC2)CC1=O (stereo partly drawn) [19-30, 3β-O-(3′,3′-Dimethylsuccinyl)-17β-tetrahydro-pyran-4-carbonylamino-21-oxolup-18-ene] | < 0.199 |  |  |
| CC(=O)N1CCC(C(=O)N[C@@]23CC[C@]4(C)[C@H](CC[C@@H]5[C@@]6(C)CC[C@H](OC(=O)CC(C)(C)C(=O)O)C(C)(C)[C@@H]6CC[C@]54C)C2=C(C(C)C)C(=O)C3)CC1 [19-7, 3β-O-(3′,3′-Dimethylsuccinyl)-17β-(1-acetylpiperidine-4-amido)-21-oxolup-18-ene] | < 0.199 | < 0.199 |  |
